In ChEMBL document CHEMBL2074568, “Characterization of the transport properties of human multidrug resistance protein 7 (MRP7, ABCC10)” (Mol Pharmacol, 2003) one finds Activity data, which are given here for 21 molecules.

Type in all cases: functional, cell membranes
What all share (parameters): scale not given: the % may be the effect or the level left

Assay [1] deals with T1, ATP-binding cassette sub-family C member 10 (Homo sapiens) (UniProt Q5T3U5).
T1 sequence (whole entry): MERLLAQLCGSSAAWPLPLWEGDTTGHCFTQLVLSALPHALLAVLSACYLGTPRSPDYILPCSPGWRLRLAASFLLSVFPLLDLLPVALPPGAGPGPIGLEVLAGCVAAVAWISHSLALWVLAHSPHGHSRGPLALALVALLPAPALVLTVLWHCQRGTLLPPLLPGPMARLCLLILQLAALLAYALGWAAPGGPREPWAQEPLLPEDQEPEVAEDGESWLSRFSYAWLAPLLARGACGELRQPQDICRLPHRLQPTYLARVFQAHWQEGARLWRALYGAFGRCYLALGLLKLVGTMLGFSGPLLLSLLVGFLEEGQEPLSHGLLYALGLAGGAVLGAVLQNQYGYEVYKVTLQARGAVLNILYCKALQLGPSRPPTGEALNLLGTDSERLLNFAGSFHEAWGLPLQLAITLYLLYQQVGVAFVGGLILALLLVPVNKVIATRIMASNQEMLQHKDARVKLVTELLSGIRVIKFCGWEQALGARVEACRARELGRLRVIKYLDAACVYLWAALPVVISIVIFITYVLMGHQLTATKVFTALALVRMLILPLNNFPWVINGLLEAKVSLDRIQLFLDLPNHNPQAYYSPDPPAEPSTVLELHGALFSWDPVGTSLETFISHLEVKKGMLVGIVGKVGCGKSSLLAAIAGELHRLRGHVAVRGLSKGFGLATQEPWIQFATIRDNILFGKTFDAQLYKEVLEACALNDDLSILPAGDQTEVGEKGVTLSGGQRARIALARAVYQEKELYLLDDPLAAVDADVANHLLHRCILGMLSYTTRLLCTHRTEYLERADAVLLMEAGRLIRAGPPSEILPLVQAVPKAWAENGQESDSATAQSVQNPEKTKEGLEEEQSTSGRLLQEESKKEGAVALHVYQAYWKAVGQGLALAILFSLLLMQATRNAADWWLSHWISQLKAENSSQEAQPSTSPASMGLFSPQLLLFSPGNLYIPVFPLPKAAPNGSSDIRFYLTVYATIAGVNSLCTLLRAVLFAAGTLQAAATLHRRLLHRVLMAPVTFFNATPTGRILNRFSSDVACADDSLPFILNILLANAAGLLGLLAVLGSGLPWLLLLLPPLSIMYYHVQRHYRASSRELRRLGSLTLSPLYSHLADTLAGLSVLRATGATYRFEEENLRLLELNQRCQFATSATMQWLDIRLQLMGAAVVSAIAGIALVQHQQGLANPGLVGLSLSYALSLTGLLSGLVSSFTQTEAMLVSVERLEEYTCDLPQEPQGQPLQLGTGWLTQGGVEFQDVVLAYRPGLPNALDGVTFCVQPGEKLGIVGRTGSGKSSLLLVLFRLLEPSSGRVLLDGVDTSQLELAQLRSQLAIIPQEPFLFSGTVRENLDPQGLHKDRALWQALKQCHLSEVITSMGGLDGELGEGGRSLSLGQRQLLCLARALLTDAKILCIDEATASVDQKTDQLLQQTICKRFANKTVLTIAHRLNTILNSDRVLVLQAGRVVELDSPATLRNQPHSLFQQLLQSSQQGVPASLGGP
The assay can be described thus: TP_TRANSPORTER: inhibition of E217betaG uptake (E217betaG: 1 uM, Sulfinpyrazone:30uM) in membrane vesicles from MRP7-expressing HEK293 cells. The conditions noted are these: Membrane vesicle.

The target of assay [2] is T1, ATP-binding cassette sub-family C member 10 (Homo sapiens). The assay is described as follows: TP_TRANSPORTER: inhibition of E217betaG uptake (E217betaG: 1 uM, Sildefafil:100uM) in membrane vesicle from MRP7-expressing HEK293 cells.
The target is the same in assay [3]. The assay is described as follows: TP_TRANSPORTER: inhibition of E217betaG uptake (E217betaG: 1 uM, Taxol: 30 uM) in membrane vesicles from MRP7-expressing HEK293 cells. The note with it: Membrane vesicle.
Assay [4] has the same target. The assay can be described thus: TP_TRANSPORTER: inhibition of E217betaG uptake (E217betaG: 1 uM, 17alpha-Ethynyl-17beta-Estradiol: 100 uM) in membrane vesicles from MRP7-expressing HEK293 cells. The conditions noted are these: Membrane vesicle.
The target is the same in assay [5]. The assay can be described thus: TP_TRANSPORTER: inhibition of E217betaG uptake (E217betaG: 1 uM, 16alpha,17beta-Estriol 16-(beta-D-glucuronide): 100 uM) in membrane vesicles from MRP7-expressing HEK293 cells. The note with it: Membrane vesicle.
For assay [6] the target is unchanged. The assay can be described thus: TP_TRANSPORTER: inhibition of E217betaG uptake (E217betaG: 1 uM, Vincristine: 30 uM) in membrane vesicles from MRP7-expressing HEK293 cells. The conditions noted are these: Membrane vesicle.
The target is the same in assay [7]. The assay is described as follows: TP_TRANSPORTER: inhibition of E217betaG uptake (E217betaG: 1 uM, Verapamil: 100 uM) in membrane vesicles from MRP7-expressing HEK293 cells. The conditions noted are these: Membrane vesicle.
The target is the same in assay [8]. The assay is described as follows: TP_TRANSPORTER: inhibition of E217betaG uptake (E217betaG: 1 uM, Glycholithocholate-3-sulfate: 30 uM) in membrane vesicles from MRP7-expressing HEK293 cells. The note with it: Membrane vesicle.
Assay [9] shares this target. The assay can be described thus: TP_TRANSPORTER: inhibition of E217betaG uptake (E217betaG: 1 uM, E2 3SO4 17betaG: 100uM) in membrane vesicles from MRP7-expressing HEK293 cells. The conditions noted are these: Membrane vesicle.
For assay [10] the target is unchanged. The assay can be described thus: TP_TRANSPORTER: inhibition of E217betaG uptake (E217betaG: 1 uM, Estradiol-3-glucuronide: 100 uM) in membrane vesicles from MRP7-expressing HEK293 cells. The conditions noted are these: Membrane vesicle.
Assay [11] has the same target. The assay can be described thus: TP_TRANSPORTER: inhibition of E217betaG uptake (E217betaG: 1 uM, LTC4:1uM) in membrane vesicles from MRP7-expressing HEK293 cells. The conditions noted are these: Membrane vesicle.
Assay [12] shares this target. The assay can be described thus: TP_TRANSPORTER: inhibition of E217betaG uptake (E217betaG: 1 uM, beta-Estradiol: 100 uM) in membrane vesicles from MRP7-expressing HEK293 cells. The note with it: Membrane vesicle.
Assay [13] shares this target. The assay can be described thus: TP_TRANSPORTER: inhibition of E217betaG uptake (E217betaG: 1 uM, Glycocholate: 100uM) in membrane vesicles from MRP7-expressing HEK293 cells. The note with it: Membrane vesicle.
Assay [14] has the same target. The assay can be described thus: TP_TRANSPORTER: inhibition of E217betaG uptake (E217betaG: 1 uM, VP-16: 30 uM) in membrane vesicles from MRP7-expressing HEK293 cells. The note with it: Membrane vesicle.
For assay [15] the target is unchanged. The assay can be described thus: TP_TRANSPORTER: inhibition of E217betaG uptake (E217betaG: 1 uM, Trequinsin: 100 uM) in membrane vesicles from MRP7-expressing HEK293 cells. The conditions noted are these: Membrane vesicle.
The target is the same in assay [16]. The assay can be described thus: TP_TRANSPORTER: inhibition of E217betaG uptake (E217betaG: 1 uM, MTX:100uM) in membrane vesicles from MRP7-expressing HEK293 cells. The note with it: Membrane vesicle.
Assay [17] shares this target. The assay is described as follows: TP_TRANSPORTER: inhibition of E217betaG uptake (E217betaG: 1 uM, DNP-SG:10uM) in membrane vesicles from MRP7-expressing HEK293 cells. The conditions noted are these: Membrane vesicle.
Assay [18] shares this target. The assay is described as follows: TP_TRANSPORTER: inhibition of E217betaG uptake (E217betaG: 1 uM, Doxorubicin: 30 uM) in membrane vesicles from MRP7-expressing HEK293 cells. The conditions noted are these: Membrane vesicle.
Assay [19] has the same target. The assay is described as follows: TP_TRANSPORTER: inhibition of E217betaG uptake (E217betaG: 1 uM, Zaprinast: 100uM) in membrane vesicles from MRP7-expressing HEK293 cells. The conditions noted are these: Membrane vesicle.
The target is the same in assay [20]. The assay can be described thus: TP_TRANSPORTER: inhibition of E217betaG uptake (E217betaG: 1 uM, 16alpha,17beta-Estriol 3-sulfate: 100 uM) in membrane vesicles from MRP7-expressing HEK293 cells. The note with it: Membrane vesicle.
For assay [21] the target is unchanged. The assay can be described thus: TP_TRANSPORTER: inhibition of E217betaG uptake (E217betaG: 1 uM, 16alpha,17beta-Estriol 3-(beta-D-glucuronide): 100 uM) in membrane vesicles from MRP7-expressing HEK293 cells. The note with it: Membrane vesicle.

As to `O=C1C(CC[S+]([O-])c2ccccc2)C(=O)N(c2ccccc2)N1c1ccccc1` (stereo unspecified), the Activity in assay [1] was 39.5%. As for `CCCc1nn(C)c2c(=O)[nH]c(-c3cc(S(=O)(=O)N4CCN(C)CC4)ccc3OCC)nc12`, in [2], the Activity was 41%.

On to `CC(=O)O[C@H]1C(=O)[C@@]2(C)[C@H]([C@H](OC(=O)c3ccccc3)[C@]3(O)C[C@H](OC(=O)[C@H](O)[C@@H](NC(=O)c4ccccc4)c4ccccc4)C(C)=C1C3(C)C)[C@]1(OC(C)=O)CO[C@@H]1C[C@@H]2O`, for which the Activity in assay [3] is 22.1%. In the case of `C#C[C@]1(O)CC[C@H]2[C@@H]3CCc4cc(O)ccc4[C@H]3CC[C@@]21C`, the Activity in [4] was 51.4%. Turning to `C[C@]12CC[C@@H]3c4ccc(O)cc4CC[C@H]3[C@@H]1C[C@@H](O[C@@H]1O[C@H](C(=O)O)[C@@H](O)[C@H](O)[C@H]1O)[C@@H]2O`, the Activity in assay [5] was 53%. With `CC[C@]1(O)C[C@H]2CN(CCc3c([nH]c4ccccc34)[C@@](C(=O)OC)(c3cc4c(cc3OC)N(C=O)[C@H]3[C@@](O)(C(=O)OC)[C@H](OC(C)=O)[C@]5(CC)C=CCN6CC[C@]43[C@@H]65)C2)C1`, in [6], the Activity was 18.4%. Consider `COc1ccc(CCN(C)CCCC(C#N)(c2ccc(OC)c(OC)c2)C(C)C)cc1OC` (stereo unspecified), for which the Activity in assay [7] was 62.3%. Consider `C[C@H](CCC(=O)NCC(=O)O)[C@H]1CC[C@H]2[C@@H]3CC[C@@H]4C[C@H](OS(=O)(=O)O)CC[C@]4(C)[C@H]3CC[C@]12C`, for which, in [8], the Activity was 41.8%. For `C[C@]12CC[C@@H]3c4ccc(OS(=O)(=O)O)cc4CC[C@H]3[C@@H]1CC[C@@H]2O[C@@H]1O[C@H](C(=O)O)[C@@H](O)[C@H](O)[C@H]1O`, the Activity in [9] was 45.1%. Regarding `C[C@]12CC[C@@H]3c4ccc(O[C@@H]5O[C@H](C(=O)O)[C@@H](O)[C@H](O)[C@H]5O)cc4CC[C@H]3[C@@H]1CC[C@@H]2O`, the Activity in assay [10] is 60.1%. In the case of `CCCCC/C=C\C\C=C/C=C/C=C/[C@@H](SC[C@@H](NC(=O)CC[C@H](N)C(=O)O)C(=O)NCC(=O)O)[C@@H](O)CCCC(=O)O`, the Activity in assay [11] is 40.4%. Consider `C[C@]12CC[C@@H]3c4ccc(O)cc4CC[C@H]3[C@@H]1CC[C@@H]2O`, for which the Activity in [12] is 60.7%. Take `C[C@H](CCC(=O)NCC(=O)O)[C@H]1CC[C@H]2[C@@H]3[C@H](O)C[C@@H]4C[C@H](O)CC[C@]4(C)[C@H]3C[C@H](O)[C@]12C`: the Activity in assay [13] is 58.4%.

Turning to `COc1cc([C@@H]2c3cc4c(cc3[C@@H](O[C@@H]3O[C@@H]5CO[C@@H](C)O[C@H]5[C@H](O)[C@H]3O)[C@H]3COC(=O)[C@H]23)OCO4)cc(OC)c1O`, the Activity in assay [14] is 49.5%.

For the molecule `COc1cc2c(cc1OC)-c1c/c(=N\c3c(C)cc(C)cc3C)n(C)c(=O)n1CC2`, the Activity in assay [15] was 44.3%. Take `CN(Cc1cnc2nc(N)nc(N)c2n1)c1ccc(C(=O)N[C@@H](CCC(=O)O)C(=O)O)cc1`: the Activity in [16] is 74%. `N[C@@H](CCC(=O)N[C@H](CSc1ccc([N+](=O)[O-])cc1[N+](=O)[O-])C(=O)NCC(=O)O)C(=O)O`: the Activity in assay [17] is 46.4%. On to `COc1cccc2c1C(=O)c1c(O)c3c(c(O)c1C2=O)C[C@@](O)(C(=O)CO)C[C@@H]3O[C@H]1C[C@H](N)[C@H](O)[C@H](C)O1`, for which the Activity in [18] was 18.2%. For `CCCOc1ccccc1-c1nc2[nH]nnc2c(=O)[nH]1`, in assay [19], the Activity is 48.3%. Take `C[C@]12CC[C@@H]3c4ccc(OS(=O)(=O)O)cc4CC[C@H]3[C@@H]1C[C@@H](O)[C@@H]2O`: the Activity in assay [20] was 49.4%.

`C[C@]12CC[C@@H]3c4ccc(O[C@@H]5O[C@H](C(=O)O)[C@@H](O)[C@H](O)[C@H]5O)cc4CC[C@H]3[C@@H]1C[C@@H](O)[C@@H]2O`: the Activity in assay [21] is 58.5%.
